Measured values reported in ChEMBL document CHEMBL5726724, “Cystathionine-gamma-lyase (CSE) inhibitors” (2019).
Each block holds one compound with its values, some of them ahead of it.

Target: Cystathionine gamma-lyase (Homo sapiens, UniProt P32929)
Sequence (P32929 whole entry): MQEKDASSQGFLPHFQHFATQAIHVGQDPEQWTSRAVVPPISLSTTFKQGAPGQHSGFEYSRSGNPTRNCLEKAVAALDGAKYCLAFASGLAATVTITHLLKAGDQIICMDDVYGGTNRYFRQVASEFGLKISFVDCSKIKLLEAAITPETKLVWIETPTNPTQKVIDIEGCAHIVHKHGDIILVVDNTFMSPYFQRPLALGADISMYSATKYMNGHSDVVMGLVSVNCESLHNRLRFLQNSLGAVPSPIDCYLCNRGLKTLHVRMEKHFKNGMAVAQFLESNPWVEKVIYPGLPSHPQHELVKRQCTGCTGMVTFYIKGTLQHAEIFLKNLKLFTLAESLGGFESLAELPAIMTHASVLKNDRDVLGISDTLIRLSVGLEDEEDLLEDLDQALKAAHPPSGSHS

Structure (SMILES): C#CCC(N)C(=O)O (configuration not stated)
IC50: < 25 µM

Structure (SMILES): C#CC[C@H](N)c1nc(C(F)(F)F)n[nH]1
IC50: > 100 µM

IC50: < 25 µM
Structure (SMILES): C#CC[C@H](N)c1ncn[nH]1

Structure (SMILES): C#CC[C@H](N)c1noc(=O)[nH]1
IC50: < 25 µM

Structure (SMILES): C#CC[C@H](N)c1nc(N)n[nH]1
IC50: > 100 µM

Structure (SMILES): C#CC[C@@H](N)C(=O)O
IC50: > 100 µM

Structure (SMILES): N#CCC(N)C(=O)O (configuration not stated)
IC50: < 25 µM
